Experimental data published in patent US7153869B2, “Substituted amino acids as erythropoietin mimetics” (priority 1998, dated 2006).
Like-named read-outs stand apart in the source and are kept apart here.

Target: T1, EBP-Ig (N-terminal 225 amino acids of the human EPO receptor joined to an Ig heavy chain) (Homo sapiens, UniProt P19235)
T1 construct: Ig heavy chain (fusion partner); made in house; host or cells: NSO cells (secreted into conditioned media)
T1 sequence (P19235 25-250 limits assumed): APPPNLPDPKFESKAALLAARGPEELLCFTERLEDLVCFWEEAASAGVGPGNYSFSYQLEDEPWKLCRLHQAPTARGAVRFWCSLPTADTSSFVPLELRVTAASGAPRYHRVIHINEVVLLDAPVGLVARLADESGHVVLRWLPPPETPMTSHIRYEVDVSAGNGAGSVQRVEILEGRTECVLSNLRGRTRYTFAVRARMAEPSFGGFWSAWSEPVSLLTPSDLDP
Assay: Inhibition of [125I]EPO binding to immobilized EBP-Ig (EPO binding protein-Ig), scintillation Flash plate competition assay
Conditions: for IC30 μM (Inhibition of EPO binding to EBP-Ig): 0–500 μM test compound; for % inh @ 50 μM (Inhibition of EPO binding to EBP-Ig): 50 μM test compound, average % inhibition

[1] = read-out: IC50, μM (Inhibition of EPO binding to EBP-Ig), 0.5 nM [125I]EPO, concentration reducing corrected total binding to 50%
[2] = read-out: % inh @ 50 μM (Inhibition of EPO binding to EBP-Ig)
[3] = read-out: EPO/EBP-Ig % inh @ 50 μM, Table 11, 50 μM

CC(C)(C)OC[C@H](NC/C=C/c1cccc(Oc2cccc(C(F)(F)F)c2)c1)C(=O)O [compound 357]
EPO/EBP-Ig % inh @ 50 μM (50 μM compound, Table 20A): 12%

CCCCNC(=O)C(CCCCNC(=O)c1ccc(OC)cc1)N(C/C=C/c1ccccc1)C/C=C/c1ccccc1 (stereo not drawn) [compound 207]
EPO/EBP-Ig % inh @ 50 μM (50 μM compound, Table 10): 20%

COC(=O)C(CCCCN)N(C/C=C/c1cccc([N+](=O)[O-])c1)C/C=C/c1cccc([N+](=O)[O-])c1 (stereo not drawn) [compound 184]
IC30 μM (Inhibition of EPO binding to EBP-Ig) (0.5 nM [125I]EPO): 10 µM
EPO/EBP-Ig % inh @ 50 μM (50 μM compound, Table 9): 53%
% inh @ 50 μM (Inhibition of EPO binding to EBP-Ig) (0.5 nM [125I]EPO): 53%

CC(C)C[C@H](NC/C=C/c1ccc(C(F)(F)F)cc1)C(=O)O.O=C(O)C(F)(F)F [compound 369]
EPO/EBP-Ig % inh @ 50 μM (50 μM compound): 12%

CC(C)(C)OC(=O)NCCCCC(C(=O)NCc1ccc(OCC=Cc2ccccc2)cc1)N(CC=Cc1ccccc1)CC=Cc1ccccc1 (stereo not drawn) [compound 216]
EPO/EBP-Ig % inh @ 50 μM (50 μM compound, Table 10): 10%

O=C(O)CCC(C(=O)O)N(C/C=C/c1ccc(NC(=O)c2ccncc2)cc1)Cc1ccc(OCc2ccccc2)cc1 (stereo not drawn) [compound 86]
% inh @ 50 μM (Inhibition of EPO binding to EBP-Ig) (0.5 nM [125I]EPO): 37%
EPO/EBP-Ig % inh @ 50 μM (Table 5, 50 μM): 37%

COC(=O)C(CCCCN)N(Cc1ccc(OCc2ccccc2)cc1)Cc1cccc(NC(=O)C(C)C)c1 (stereo not drawn) [compound 119]
% inh @ 50 μM (Inhibition of EPO binding to EBP-Ig) (0.5 nM [125I]EPO): 34%
EPO/EBP-Ig % inh @ 50 μM (Table 7, 50 μM): 34%

CC(C)(C)OC(=O)CC(C(=O)NCCCCCCCCCCCCNC(=O)C(CC(=O)OC(C)(C)C)N(C/C=C/c1cccc(Oc2ccc(C(C)(C)C)cc2)c1)C/C=C/c1cccc(Oc2ccc(C(C)(C)C)cc2)c1)N(C/C=C/c1cccc(Oc2ccc(C(C)(C)C)cc2)c1)C/C=C/c1cccc(Oc2ccc(C(C)(C)C)cc2)c1 (stereo not drawn) [compound 255]
EPO/EBP-Ig % inh @ 50 μM (50 μM compound, Table 12): 0%

O=C(O)CCC(C(=O)NCCOCCOCCNC(=O)C(CCC(=O)O)N(CC=Cc1ccccc1)CC=Cc1ccccc1)N(CC=Cc1ccccc1)CC=Cc1ccccc1 (stereo not drawn) [compound 251]
IC30 μM (Inhibition of EPO binding to EBP-Ig) (0.5 nM [125I]EPO): 10 µM
EPO/EBP-Ig % inh @ 50 μM (50 μM compound, Table 12): 49%
% inh @ 50 μM (Inhibition of EPO binding to EBP-Ig) (0.5 nM [125I]EPO): 49%
IC50 [1]: 45 µM

CCCCC(=O)Nc1cccc(CN(Cc2cccc(Oc3ccccc3)c2)C(CCC(=O)O)C(=O)NCCOCCOCCNC(=O)C(CCC(=O)O)N(Cc2cccc(NC(=O)CCCC)c2)Cc2cccc(Oc3ccccc3)c2)c1 (stereo not drawn) [cpd 247, [N-(3-Phenoxybenzyl)-N-(3-(pentanoylamino)benzyl)-Glu-NHCH2CH2OCH2]2]
IC50: 18 µM
IC30 μM (Inhibition of EPO binding to EBP-Ig) (0.5 nM [125I]EPO): 7 µM
inhibition at 50 µM [2]: 47%
inhibition at 50 µM [3]: 47%

CSCC[C@H](NC/C=C/c1ccc(C(F)(F)F)cc1)C(=O)O.O=C(O)C(F)(F)F [compound 365]
EPO/EBP-Ig % inh @ 50 μM (50 μM compound): 0%

COc1cccc(CCNC(=O)C(CCCCNC(=O)CCC(=O)O)N(CC=Cc2ccccc2)CC=Cc2ccccc2)c1 (stereo not drawn) [compound 237]
IC30 μM (Inhibition of EPO binding to EBP-Ig) (0.5 nM [125I]EPO): 30 µM
inhibition at 50 µM [2]: 55%
inhibition at 50 µM (read-out: EPO/EBP-Ig % inh @ 50 μM, 50 μM compound, Table 10): 55%
IC50 [1]: 70 µM

CC(C)(C)OC(=O)CC(C(=O)NCCCCCCCCCCNC(=O)C(CC(=O)OC(C)(C)C)N(C/C=C/c1cccc(Oc2ccc(C(C)(C)C)cc2)c1)C/C=C/c1cccc(Oc2ccc(C(C)(C)C)cc2)c1)N(C/C=C/c1cccc(Oc2ccc(C(C)(C)C)cc2)c1)C/C=C/c1cccc(Oc2ccc(C(C)(C)C)cc2)c1 (stereo not drawn) [compound 254]
EPO/EBP-Ig % inh @ 50 μM (50 μM compound, Table 12): −9%

CC(C)(CC(=O)O)CC(=O)NCCCCC(C(=O)NCCCCCCCCCCCCNC(=O)C(CCCCNC(=O)CC(C)(C)CC(=O)O)N(Cc1ccc(OCc2ccccc2)cc1)Cc1ccc(OCc2ccccc2)cc1)N(Cc1ccc(OCc2ccccc2)cc1)Cc1ccc(OCc2ccccc2)cc1 (stereo not drawn) [compound 268]
EPO/EBP-Ig % inh @ 50 μM (50 μM compound, Table 13): 40%
% inh @ 50 μM (Inhibition of EPO binding to EBP-Ig) (0.5 nM [125I]EPO): 40%

O=C(O)C(F)(F)F.O=C(O)[C@H](CO)NC/C=C/c1ccc(-c2ccccc2)cc1 [compound 348]
EPO/EBP-Ig % inh @ 50 μM (50 μM compound, Table 20A): 21%

O=C(O)C(F)(F)F.O=C(O)[C@H](Cc1ccc(O)cc1)NC/C=C/c1ccc(C(F)(F)F)cc1 [compound 362]
EPO/EBP-Ig % inh @ 50 μM (50 μM compound): 0%

COC(=O)[C@H](COC(C)(C)C)NC/C=C/c1cccc(Oc2cccc(C(F)(F)F)c2)c1 [compound 355]
EPO/EBP-Ig % inh @ 50 μM (50 μM compound, Table 20A): 22%

CCCCNC(=O)C(CCCCNC(=O)c1ccccc1OC)N(C/C=C/c1ccccc1)C/C=C/c1ccccc1 (stereo not drawn) [compound 206]
EPO/EBP-Ig % inh @ 50 μM (50 μM compound, Table 10, 50 µM): 17%

Cc1ccc(Oc2cccc(CN(Cc3cccc(NCc4ccccc4)c3)C(CC(=O)O)C(=O)O)c2)cc1 (stereo not drawn) [compound 75]
EPO/EBP-Ig % inh @ 50 μM (Table 4, 50 μM): −2%

O=C(O)CC(C(=O)O)N(Cc1cccc(NCc2cccc(Br)c2)c1)Cc1cccc(Oc2ccccc2)c1 (stereo not drawn) [compound 67]
EPO/EBP-Ig % inh @ 50 μM (Table 4, 50 μM): −8%

CC(=O)O.COC(=O)[C@H](CO)N(C/C=C/c1cccc(Oc2ccc(C(C)(C)C)cc2)c1)C/C=C/c1cccc(Oc2ccc(C(C)(C)C)cc2)c1 [compound 298]
EPO/EBP-Ig % inh @ 50 μM (50 μM compound, Table 16A): 1%

O=C(O)CC(C(=O)NCCCOCCCCOCCCNC(=O)C(CC(=O)O)N(Cc1ccc(OCc2ccccc2)cc1)Cc1ccc(OCc2ccccc2)cc1)N(Cc1ccc(OCc2ccccc2)cc1)Cc1ccc(OCc2ccccc2)cc1 (stereo not drawn) [compound 243]
IC50: 18 µM
IC30 μM (Inhibition of EPO binding to EBP-Ig) (0.5 nM [125I]EPO): 2 µM
inhibition at 50 µM [2]: 75%
inhibition at 50 µM [3]: 75%

CC(=O)O.COC(=O)[C@H](CO)N(C/C=C/c1cccc(Oc2cccc(C(F)(F)F)c2)c1)C/C=C/c1cccc(Oc2cccc(C(F)(F)F)c2)c1 [compound 297]
EPO/EBP-Ig % inh @ 50 μM (50 μM compound, Table 16A): 0%

CC(C)(C)c1ccc(Oc2cccc(/C=C/CN(C/C=C/c3cccc(Oc4ccc(C(C)(C)C)cc4)c3)C(CCC(=O)O)C(=O)O)c2)cc1 (stereo not drawn) [compound 104]
IC30 μM (Inhibition of EPO binding to EBP-Ig) (0.5 nM [125I]EPO): 10 µM
% inh @ 50 μM (Inhibition of EPO binding to EBP-Ig) (0.5 nM [125I]EPO): 78%
EPO/EBP-Ig % inh @ 50 μM (Table 6, 50 μM): 78%
IC50 [1]: 30 µM

COC(=O)C(CCC(=O)O)N(C/C=C/c1ccccc1)C/C=C/c1ccccc1 (stereo not drawn) [compound 92]
EPO/EBP-Ig % inh @ 50 μM (Table 6, 50 μM): 20%

COC(=O)[C@H](CCCCNC(=O)OCc1ccccc1)NC/C=C/c1ccccc1 [compound 318]
EPO/EBP-Ig % inh @ 50 μM (50 μM compound, Table 18A): 14%

O=C(O)CC(C(=O)O)N(Cc1cccc(NCc2cccc(Cl)c2)c1)Cc1cccc(Oc2ccccc2)c1 (stereo not drawn) [compound 66]
EPO/EBP-Ig % inh @ 50 μM (Table 4, 50 μM): −16%

COC(=O)C(CCCCNC(=O)OC(C)(C)C)N(Cc1ccc(OCc2ccccc2)cc1)Cc1ccc(OCc2ccccc2)cc1 (stereo not drawn) [cpd 111, N,N-bis(4-Benzyloxybenzyl)Lys(Boc)-OMe]
EPO/EBP-Ig % inh @ 50 μM (Table 7, 50 μM): 5%

COC(=O)C(CCCCNC(=O)OCc1ccccc1)N(C/C=C/c1ccccc1)C/C=C/c1ccccc1 (stereo not drawn) [compound 171]
EPO/EBP-Ig % inh @ 50 μM (50 μM compound, Table 9): nb

CCOC(=O)CCC(C(=O)OC)N(C/C=C/c1ccccc1)C/C=C/c1ccccc1 (stereo not drawn) [compound 94]
EPO/EBP-Ig % inh @ 50 μM (Table 6, 50 μM): 25%

COC(=O)C(CCC(=O)OC(C)(C)C)N(C/C=C/c1ccccc1)C/C=C/c1ccccc1 (stereo not drawn) [compound 93]
EPO/EBP-Ig % inh @ 50 μM (Table 6, 50 μM): 20%

Cc1ccc(Oc2cccc(CN(Cc3cccc(NCc4c(F)c(F)c(F)c(F)c4F)c3)C(CC(=O)O)C(=O)O)c2)cc1 (stereo not drawn) [compound 72]
EPO/EBP-Ig % inh @ 50 μM (Table 4, 50 μM): −14%

CC(C)(C)OC(=O)NCCCCC(C(=O)NCCCOCCCCOCCCNC(=O)C(CCCCNC(=O)OC(C)(C)C)N(Cc1ccc(OCc2ccccc2)cc1)Cc1ccc(OCc2ccccc2)cc1)N(Cc1ccc(OCc2ccccc2)cc1)Cc1ccc(OCc2ccccc2)cc1 (stereo not drawn) [compound 258]
EPO/EBP-Ig % inh @ 50 μM (50 μM compound, Table 13): −24%

CC(C)(C)OC(=O)CC(C(=O)OC(C)(C)C)N(CC=Cc1cccc(Oc2ccccc2)c1)CC=Cc1cccc(Oc2ccccc2)c1 (stereo not drawn) [cpd 106, N,N-bis(3-Phenoxycinnamyl)Asp(O-t-Bu)-O-t-Bu]
EPO/EBP-Ig % inh @ 50 μM (Table 6, 50 μM): 20%

COC(=O)C(CCCCNC(=O)OCc1ccccc1)N(C/C=C/c1ccc(OC)cc1)C/C=C/c1ccc(OC)cc1 (stereo not drawn) [compound 174]
EPO/EBP-Ig % inh @ 50 μM (50 μM compound, Table 9): 23%

O=C(O)CCC(C(=O)NCCOCCOCCNC(=O)C(CCC(=O)O)N(Cc1ccc(OCc2ccccc2)cc1)Cc1ccc(OCc2ccccc2)cc1)N(Cc1ccc(OCc2ccccc2)cc1)Cc1ccc(OCc2ccccc2)cc1 (stereo not drawn) [cpd 246, [N,N-bis(4-Benzyloxybenzyl)GluNHCH2CH2OCH2]2]
IC30 μM (Inhibition of EPO binding to EBP-Ig) (0.5 nM [125I]EPO): 10 µM
inhibition at 50 µM [2]: 79%
inhibition at 50 µM [3]: 79%

Cc1ccc(S(=O)(=O)Nc2cccc(CN(Cc3cccc(Oc4ccccc4)c3)C(CCC(=O)O)C(=O)NCCOCCOCCNC(=O)C(CCC(=O)O)N(Cc3cccc(NS(=O)(=O)c4ccc(C)cc4)c3)Cc3cccc(Oc4ccccc4)c3)c2)cc1 (stereo not drawn) [compound 250]
IC50: 20 µM
IC30 μM (Inhibition of EPO binding to EBP-Ig) (0.5 nM [125I]EPO): 7 µM
inhibition at 50 µM [2]: 78%
inhibition at 50 µM [3]: 78%

CCCNC(=O)C(CCCCN)N(C/C=C/c1ccccc1)C/C=C/c1ccccc1 (stereo not drawn) [compound 212]
EPO/EBP-Ig % inh @ 50 μM (50 μM compound, Table 10): −10%
